Source: ChEMBL document CHEMBL4002558, “Characterization of a Bioactive Acyclotide from Palicourea rigida” (J Nat Prod, 2016)
Positions of bridges follow the written chain, without caps; N, C: chain ends. Residues, ends and D or L forms follow the SMILES beside them.

System: MCF7
Assay: Cytotoxicity against human MCF7 cells assessed as decrease in cell viability at 10 uM after 72 hrs by MTT assay
Type: functional, cell-based
Conditions: MCF7, 72 h

CC[C@H](C)[C@@H]1NC(=O)[C@@H]2CSSC[C@@H](C(=O)N[C@@H](Cc3ccc(O)cc3)C(=O)N[C@@H](CCCNC(=N)N)C(=O)N[C@@H](CC(=O)O)C(=O)O)NC(=O)[C@H](C(C)C)NC(=O)[C@H](CCCCN)NC(=O)[C@H](CC(N)=O)NC(=O)[C@H](CCCCN)NC(=O)[C@H]3CSSC[C@H](NC(=O)[C@H](CO)NC(=O)[C@H](CCC(=O)O)NC(=O)CNC(=O)[C@@H](NC(=O)[C@@H]4CCCN4C(=O)[C@@H](NC(=O)[C@@H](NC(=O)CN)C(C)C)[C@@H](C)CC)CSSC[C@@H](NC(=O)CNC(=O)[C@H](CC(C)C)NC(=O)[C@H](C(C)C)NC(=O)[C@H](CO)NC(=O)[C@H](CO)NC1=O)C(=O)N[C@@H](CO)C(=O)N3)C(=O)N[C@@H](C(C)C)C(=O)N[C@@H](Cc1ccccc1)C(=O)N[C@@H]([C@@H](C)CC)C(=O)N1CCC[C@H]1C(=O)N2
IC50: 0.64 µM

CC[C@H](C)[C@H](NC(=O)CN)C(=O)N[C@@H](C)C(=O)N[C@H]1CSSC[C@H]2NC(=O)CNC(=O)[C@@H]3CCCN3C(=O)[C@H]([C@@H](C)CC)NC(=O)[C@H](Cc3ccccc3)NC(=O)[C@@H]3CSSC[C@@H](C(=O)N[C@@H](Cc4ccc(O)cc4)C(=O)N[C@@H](Cc4ccccc4)C(=O)N[C@@H](CC(N)=O)C(=O)O)NC(=O)[C@H](C(C)C)NC(=O)[C@H](CCCCN)NC(=O)[C@H](CO)NC(=O)[C@H](CCCCN)NC(=O)[C@H](CSSC[C@H](NC(=O)[C@H](CO)NC(=O)[C@H](CCC(=O)O)NC(=O)CNC1=O)C(=O)N[C@@H](C(C)C)C(=O)N[C@@H](Cc1ccccc1)C(=O)N[C@@H](CC(C)C)C(=O)NCC(=O)N3)NC(=O)[C@H](CO)N2
IC50: 7.77 µM

CC(C)C[C@H](NC(=O)[C@@H](N)CCCCN)C(=O)N[C@H]1CSSC[C@@H]2NC(=O)[C@H](CO)NC(=O)[C@H](CS)NC(=O)CNC(=O)[C@@H]3CCCN3C(=O)[C@H]([C@@H](C)O)NC(=O)[C@H](Cc3ccc(O)cc3)NC(=O)[C@@H]3CSSC[C@@H](C(=O)N[C@@H](CCCCN)C(=O)O)NC(=O)[C@H](Cc4ccccc4)NC(=O)[C@@H]4CCCN4C(=O)[C@H](Cc4ccc(O)cc4)NC(=O)[C@H](CO)NC(=O)[C@H](CSSC[C@H](NC(=O)[C@H]([C@@H](C)O)NC(=O)[C@H](CCC(=O)O)NC(=O)CNC1=O)C(=O)N[C@@H](Cc1ccccc1)C(=O)N[C@@H](CCCCN)C(=O)N[C@@H](Cc1ccccc1)C(=O)N[C@@H](CCCCN)C(=O)N3)NC(=O)[C@H](CO)NC2=O (H-KLCGETCFKFKCYTPGCSCSCSYPFCK-OH; disulfide 3-19, 7-21, 12-26)
IC50: 2.98 µM
